Tests used:
σ1-receptor [1] = target: T1, σ1-receptor (Cavia porcellus, UniProt Q60492); assay: Sigma-1 (Version A) radioligand binding, [3H](+)-pentazocine, guinea pig brain membranes
Method: Brain membrane preparation and binding assays for the σ1-receptor were performed as described (DeHaven-Hudkins et al., 1992) with some modifications. In brief, guinea pig brains were homogenized in 10 vols. […] The homogenate was centrifuged at 1000 g for 10 min at 4° C. and the supernatants collected and centrifuged again at 48000 g for 15 min at 4° C.
Each assay tube contained 10 μL of [^3H](+)-pentazocine (final concentration of 0.5 nM), 900 μL of the tissue suspension to a final assay volume of 1 mL and a final tissue concentration of approximately 30 mg tissue net weight/mL. […] All tubes were incubated at 37° C. for 150 min before termination of the reaction by rapid filtration over Schleicher & Schuell GF 3362 glass fibre filters [previously soaked in a solution of 0.5% polyethylenimine for at least 1 h]. […] Following addition of scintillation cocktail, the samples were allowed to equilibrate overnight. The amount of bound radioactivity was determined by liquid scintillation spectrometry using a Wallac Winspectral 1414 liquid scintillation counter.

σ2-receptor = target: T2, σ2-receptor (Rattus norvegicus, UniProt Q5U3Y7); assay: Sigma 2 (Version B) radioligand binding, [3H]-ditolylguanidine, rat liver preparation, σ1 sites masked with (+)-pentazocine; details: for Ki: [3H]-ditolylguanidine 3 nM
T2 construct: the σ2-Receptorpreparation was prepared from rat liver; from tissue; host or cells: rat liver membrane homogenate
T2 sequence (Q5U3Y7 1-176): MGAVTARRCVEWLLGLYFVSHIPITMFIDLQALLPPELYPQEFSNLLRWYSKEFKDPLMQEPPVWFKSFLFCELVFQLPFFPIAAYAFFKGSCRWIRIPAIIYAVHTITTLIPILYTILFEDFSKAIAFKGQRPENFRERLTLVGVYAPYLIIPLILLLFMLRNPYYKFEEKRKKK
Method: In brief the σ2-Receptorpreparation was prepared from rat liver. The livers were homogenized in 5 to 6 times of volume sucrose solution (0.32M) and homogenized. The homogenate was centrifuged at 2900 rpm, 4° C., 10 min). the supernatant was centrifuged again (31000×g, 4° C., 20 min). The pellet was resuspended in TRIS-buffer, incubated for 30 min at room temperature while stirring and centrifuged f (31000×g, 4° C., 20 min). The pellet was resuspended in cold TRIS-buffer pH 8 and homogenized. Then the protein content was measured (approx. 2 mg/mL) and the homogenate frozen at −80° C. for later use.
The radioligand used was [^3H]-Ditolylguanidin in TRIS-buffer pH 8. The σ1-receptor binding sites were masked through (+)-Pentazocin-solution in TRIS-Puffer pH 8.
In a volume of 200 μL 50 μL compound solution of varying concentration, 50 μL (+)-Pentazocin-solution (2 μM; resulting in 500 nM in the assay), 50 μL radioligand-solution (12 nM; resulting in 3 nM in the assay) and finally 50 μL of receptor preparation (approx. 2 mg/mL) were given into a well of a microplate equipped with a filter. The plate was closed and stirred for 2 h at room temperature and 500 rpm. Following that the solvents were removed by a harvester through the filter. After rinsing with H2O the filter was measured in a scintillation counter ([^3H]-protocol).

σ1-receptor [2] = target: T1, σ1-receptor; assay: Sigma 1 (Version B) radioligand binding, [3H]-(+)-pentazocine, guinea pig brain preparation; set-up: the σ1-receptor preparation was prepared from guinea pig brain; from tissue; host or cells: guinea pig brain membrane homogenate
Method: In brief the σ1-receptor preparation was prepared from guinea pig brain. The brains were homogenized in 5 to 6 times of volume sucrose solution (0.32M) and homogenized. The homogenate was centrifuged at 2900 rpm, 4° C., 10 min). the supernatant was centrifuged again (23500×g, 4° C., 20 min). The pellet was resuspended in Tris-buffer, incubated for 30 min at room temperature and centrifuged f (23500×g, 4° C., 20 min). The pellet was resuspended in cold TRIS-buffer and homogenized. Then the protein content was measured (approx. 1.5 mg/mL) and the homogenate frozen at −80° C. for later use.
The radioligand used was […]-(+)-Pentazocin in TRIS-buffer. In a volume of 200 μL 50 μL TRIS-buffer, 50 μL compound solution of varying concentration, 50 μL radioligand-solution (8 nM; resulting in 2 nM in the assay) and finally 50 μL of receptor preparation (approx. 1.5 mg/mL) were given into a well of a microplate equipped with a filter. The plate was closed and stirred for 2.5 h at 37° C. and 500 rpm. Following that the solvents were removed by a harvester through the filter. After rinsing with H2O the filter was measured in a scintillation counter ([^3H]-protocol).

T1 sequence (Q60492 whole entry): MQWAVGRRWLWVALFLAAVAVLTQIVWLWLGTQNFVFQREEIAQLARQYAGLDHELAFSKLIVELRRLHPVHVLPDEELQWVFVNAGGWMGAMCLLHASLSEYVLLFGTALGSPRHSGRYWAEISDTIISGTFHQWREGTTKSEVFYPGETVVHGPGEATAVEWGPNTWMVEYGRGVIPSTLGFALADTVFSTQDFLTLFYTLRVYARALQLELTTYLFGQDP

Compound | Ki (σ1-receptor [1]) [nM] | Ki (σ2-receptor) [nM] | Ki (σ1-receptor [2]) [nM] | inhibition at 1 µM (σ2-receptor; compound at 1 μM) [%] | Ki (σ1-receptor [2]; version B, guinea pig brain, [3H]-(+)-pentazocine 2 nM, read-out: Binding σ1 Ki) [nM]
COC1Cc2c(cnn2-c2ccccc2)C2(CCN(CC3CCCCC3)CC2)O1 (stereo not drawn) [Example 15, 1-(Cyclohexan-1-ylmethyl)-6′-methoxy-1′-phenyl-6′,7′-dihydro-1′H-spiro[piperidin-4,4′-pyrano[4,3-c]pyrazole]] | 7.9 | 109 | 0.55 | – | –
COC1Cc2c(cnn2-c2ccccc2)C2(CCN(CC=C(C)C)CC2)O1 (stereo not drawn) [Example 13, 6′-Methoxy-1-(3-methylbut-2-en-1-yl)-1′-phenyl-6′,7′-dihydro-1′H-spiro[piperidin-4,4′ pyrano[4,3-c]pyrazole]] | 7.3 | – | 1.64 | 3 | –
COC1Cc2c(cnn2-c2ccccc2)C2(CCN(Cc3ccc(F)cc3)CC2)O1 (stereo not drawn) [Example 21, 1-(4-Fluorbenzyl)-6′-methoxy-1′-phenyl-6′,7′-dihydro-1′H-spiro[piperidin-4,4′-pyrano[4,3-c]pyrazole]] | 7.7 | 687 | 0.94 | – | –
CCCCN1CCC2(CC1)OC(OC)c1c2cnn1-c1ccccc1 (stereo not drawn) [Example 4, 1-Butyl-6′-methoxy-1′-phenyl-4′,6′-dihydro-1′H-spiro[piperidin-4,4′-furo[3,4-c]pyrazole]] | 1.2 | 1050 | – | – | 1.28
COC1Cc2c(cnn2-c2ccccc2)C2(CCN(CCC(C)C)CC2)O1 (stereo not drawn) [Example 12, 1-Isopentyl-6′-methoxy-1′-phenyl-6′,7′-dihydro-1′H-spiro[piperidin-4,4′-pyrano[4,3-c]pyrazole]] | 2.5 | 316 | 0.97 | – | –
COC1Cc2c(cnn2-c2ccccc2)C2(CCN(CCCCc3ccccc3)CC2)O1 (stereo not drawn) [Example 18, 6′-Methoxy-1′-phenyl-1-(4-phenylbutyl)-6′,7′-dihydro-1′H-spiro[piperidin-4,4′-pyrano[4,3-c]pyrazole]] | 15.7 | 428 | 3.22 | – | –
CCCCCCCCN1CCC2(CC1)OC(OC)Cc1c2cnn1-c1ccccc1 (stereo not drawn) [Example 14, 6′-Methoxy-1-octyl-1′-phenyl-6′,7′-dihydro-1′H-spiro[piperidin-4,4′-pyrano[4,3-c]pyrazole]] | 41 | 209 | 2.86 | – | –
